Assay results from patent publication US10703751B2, “Amino-imidazopyridine derivatives as Janus kinase inhibitors and pharmaceutical use thereof” (LEO Pharma A/S, priority 2017, dated 2020).
≈ marks a conversion by molar mass, not a printed value. Where two headings read alike, the source gives them in different places.

What was measured:
[1] = system: STAT6 bla-RA1 cells; assay: STAT6 assay (IL-4 stimulated reporter cells); format: cell-based; settings: for EC50: interleukin 4 10 ng/mL; for STAT5/STAT6 EC50 ratio (selectivity for STAT6 over STAT5): selectivity for STAT6 over STAT5, from EC50
Protocol: Twenty-five μL of a STAT6 bla-RA1 (Invitrogen # K1243) cell suspension was seeded with a density of 30-40,000 cells/well in 384-well Black View-plates (PerkinElmer #6007460) with clear bottom in assay medium (Opti-MEM (Invitrogen #11058-021)+0.5% heat inactivated fetal bovine Serum (Invitrogen #10082-147)+1% non-essential amino acids (Invitrogen #11140-050)+1% sodium pyruvate (Invitrogen #11360-070)+1% penicillin/streptomycin (Invitrogen #15140-122)); containing 550 ng/mL of CD40 ligand (Invitrogen # PHP0025). The cell plates were incubated overnight in a humidified 37° C. air/CO2 (95%/5%) incubator. The following day, 125 nL of solutions of test compounds and reference compounds were transferred to cell plates using the Labcyte Echo 550 liquid handler. The plates were then incubated for 1 h in a humidified 37° C. air/CO2 (95%/5%) incubator. Hereafter recombinant human interleukin 4 (Invitrogen # PHC0045) were added to the plates also using the Labcyte Echo 550 to a final concentration of 10 ng/mL. The cells were then incubated for 4½-5 h in a humidified 37° C. air/CO2 (95%/5%) incubator. 8 μL of LiveBLAzer substrate mixture (Invitrogen # K1095) were then added to the assay plates, which were incubated overnight at RT. Fluorescence was then measured: Excitation: 405 nm; Emission: 460 nm (green channel), Emission: 535 nm (blue channel). Background was subtracted in both emission channels and the ratio 460/535 nm was calculated for each well.

[2] = target: JAK1 (Homo sapiens (Human), UniProt P23458); assay: JAK1 kinase assay (HTRF); format: biochemical; settings: for JAK2/JAK1 ratio / JAK3/JAK1 ratio: ratio of the respective EC50
JAK1, sequence (P23458 850-1154): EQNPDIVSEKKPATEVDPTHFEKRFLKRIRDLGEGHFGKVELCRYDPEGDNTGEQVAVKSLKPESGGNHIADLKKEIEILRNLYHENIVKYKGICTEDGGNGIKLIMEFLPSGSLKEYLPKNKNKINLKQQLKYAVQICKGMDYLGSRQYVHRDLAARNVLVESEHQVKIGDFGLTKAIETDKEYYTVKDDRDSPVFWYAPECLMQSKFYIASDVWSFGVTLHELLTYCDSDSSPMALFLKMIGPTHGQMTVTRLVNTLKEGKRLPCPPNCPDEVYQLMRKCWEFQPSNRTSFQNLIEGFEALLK
Protocol: Human baculovirus-expressed Janus kinase (JAK) 1, 2, 3 and tyrosin kinase (TYK) 2 were purchased from Carna Biosciences, Inc (#08-144, -045, -046, -147 resp.). All four purified enzymes contain only the catalytic domain. JAK1 (aa 850-1154) and TYK2 (aa 871-1187) are expressed with an N-terminally fused GST-tag, and JAK2 and JAK3 with an N-terminally fused His-tag. Inhibition of phosphorylation of a synthetic peptide was measured in an HTRF-based assay (CisBio #62TKOPEC). First, 75 nL of test compound solution (100% DMSO) was added to a white shallow 384-well plate (NUNC #264706) using a Labcyte ECHO 550 liquid handler. Thereafter, 1 μL of compound dilution buffer (50 mM HEPES, 0.05% bovine serum albumin) and 2 μL of TK solution (TK substrate-biotin in kinase buffer [1× enzymatic buffer from HTRFKinEASE TK kit, 1 mM DTT]) was added. Then, 5 μL kinase-ATP mix (prepared in kinase buffer) was added to the wells and the plates were incubated at RT for 20 (JAK2, 3 and TYK2) to 40 (JAK1) min. For all four kinases a concentration of ATP that corresponded to the Km for ATP was used. The final concentrations of buffers, substrate, kinase and ATP were: JAK1: 50 mM Hepes buffer pH 7.0, 0.01% BSA, 10 mM MgCl2, 1 mM DTT, 7 μM ATP, 50 nM SEB, 1 μM TK Substrate-Biotin and 5 ng/well JAK1; JAK2: 50 mM Hepes buffer pH 7.0, 0.01% BSA, 5 mM MgCl2, 1 mM DTT, 4 μM ATP, 1 μM TK Substrate-Biotin and 0.1 ng/well JAK2; JAK3: 50 mM Hepes buffer pH 7.0, 0.01% BSA, 5 mM MgCl2, 1 mM DTT, 2 μM ATP, 1 μM TK Substrate-Biotin and 0.3 ng/well JAK3; TYK2: 50 mM Hepes buffer pH 7.0, 0.01% BSA, 5 mM MgCl2, 1 mM DTT, 13 μM ATP, 50 nM SEB, 1 μM TK Substrate-Biotin and 0.8 ng/well TYK2. Thereafter, the kinase reaction was stopped by adding 4 μL detection mix (final concentrations: 50 mM Hepes buffer pH 7.0, 0.01% BSA, 0.8 M KF, 20 mM EDTA, 42 nM Streptavidin-XL665 and 1:400 STK Ab Cryptate) and the plates were incubated overnight in the dark. A PerkinElmer Envision reader was used to quantify the HTRF signal using the following filters; 320 nm excitation filter, 665 nm emission filter and a 615 nm 2nd emission filter. A ratio ((665/615)×10^4) was calculated for each well.

[3] = Aqueous solubility of crystalline material; format: physicochemical; settings: aqueous medium, aqueous buffer, thermodynamic from solid
Protocol: The aqueous solubility of crystalline Example 3, Example 644 and 641 of WO2011086053 at different pH's was evaluated.

[4] = target: CYP3A4 (Homo sapiens (Human), UniProt P08684); assay: Reversible CYP inhibition, 3A4; format: in vitro ADME; settings: for IC50: up to 50 μM for Example 3, up to 25 μM for Examples 644 and 641
CYP3A4, sequence (P08684 whole entry): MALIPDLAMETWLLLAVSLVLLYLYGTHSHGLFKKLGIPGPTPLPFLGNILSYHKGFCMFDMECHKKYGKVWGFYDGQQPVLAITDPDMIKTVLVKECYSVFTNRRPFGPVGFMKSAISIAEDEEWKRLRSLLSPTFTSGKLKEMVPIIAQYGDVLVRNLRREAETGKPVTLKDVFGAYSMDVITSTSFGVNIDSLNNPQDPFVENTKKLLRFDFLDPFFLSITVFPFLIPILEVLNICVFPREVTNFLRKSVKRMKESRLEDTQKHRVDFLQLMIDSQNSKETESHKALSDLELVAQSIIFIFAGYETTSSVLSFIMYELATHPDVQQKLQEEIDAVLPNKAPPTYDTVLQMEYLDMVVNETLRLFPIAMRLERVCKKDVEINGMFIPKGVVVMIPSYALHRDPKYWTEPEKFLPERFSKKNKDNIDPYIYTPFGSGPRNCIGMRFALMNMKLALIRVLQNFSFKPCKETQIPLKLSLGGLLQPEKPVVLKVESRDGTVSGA
Protocol: (§1) Reversible CYP inhibition, time dependent CYP inhibition (TDI) and CYP induction was tested at Cyprotex PLC according to authority guidance.

[5] = target: CYP2C9 (Homo sapiens (Human), UniProt P11712); assay: Reversible CYP inhibition, 2C9; format: in vitro ADME; settings: up to 50 μM for Example 3, up to 25 μM for Examples 644 and 641
CYP2C9, sequence (P11712 whole entry): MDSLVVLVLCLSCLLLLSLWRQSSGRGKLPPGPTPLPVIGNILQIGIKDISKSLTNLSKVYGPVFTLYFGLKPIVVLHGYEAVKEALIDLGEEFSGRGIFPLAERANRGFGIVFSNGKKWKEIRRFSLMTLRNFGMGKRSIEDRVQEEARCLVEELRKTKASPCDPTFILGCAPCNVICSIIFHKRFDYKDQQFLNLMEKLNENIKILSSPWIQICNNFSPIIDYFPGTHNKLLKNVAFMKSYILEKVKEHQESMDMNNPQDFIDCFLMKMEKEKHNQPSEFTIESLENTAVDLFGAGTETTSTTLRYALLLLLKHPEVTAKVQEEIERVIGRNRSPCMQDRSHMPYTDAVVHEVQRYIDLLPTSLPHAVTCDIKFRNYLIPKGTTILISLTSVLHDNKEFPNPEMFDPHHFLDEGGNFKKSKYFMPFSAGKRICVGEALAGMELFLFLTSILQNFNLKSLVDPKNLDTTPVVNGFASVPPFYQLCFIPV
Protocol: as §1

[6] = target: CYP2D6 (Homo sapiens (Human), UniProt P10635); assay: Reversible CYP inhibition, 2D6; format: in vitro ADME; settings: up to 50 μM for Example 3, up to 25 μM for Examples 644 and 641
CYP2D6, sequence (P10635 whole entry): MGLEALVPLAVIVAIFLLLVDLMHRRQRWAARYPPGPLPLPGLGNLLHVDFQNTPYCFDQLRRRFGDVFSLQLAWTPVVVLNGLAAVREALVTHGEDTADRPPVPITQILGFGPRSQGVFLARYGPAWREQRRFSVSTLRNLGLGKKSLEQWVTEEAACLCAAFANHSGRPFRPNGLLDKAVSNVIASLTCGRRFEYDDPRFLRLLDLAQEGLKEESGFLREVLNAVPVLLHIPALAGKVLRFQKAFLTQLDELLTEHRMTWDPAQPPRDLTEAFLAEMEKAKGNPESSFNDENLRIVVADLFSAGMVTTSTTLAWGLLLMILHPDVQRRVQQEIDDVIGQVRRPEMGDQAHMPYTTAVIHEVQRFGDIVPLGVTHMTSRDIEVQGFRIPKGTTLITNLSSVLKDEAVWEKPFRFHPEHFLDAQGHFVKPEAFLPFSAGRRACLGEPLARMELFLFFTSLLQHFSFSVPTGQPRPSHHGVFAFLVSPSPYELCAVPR
Protocol: as §1

| Compound | EC50 [1] [nM] | EC50 ([2]; ATP at Km (7 μM)) [nM] | solubility ([3]; pH 2.0, crystalline material) [µg/mL] | solubility ([3]; pH 7.4, crystalline material) [µg/mL] | solubility ([3]; pH 9.0, crystalline material) [µg/mL] | CYP3A4 inhibition (in words) [4] | IC50 [4] [nM] | IC50 [5] [nM] | IC50 [6] [nM] | STAT5/STAT6 EC50 ratio (selectivity for STAT6 over STAT5) [1] | EC50 [2] [nM] | JAK2/JAK1 ratio [2] | JAK3/JAK1 ratio [2] |
| --- | --- | --- | --- | --- | --- | --- | --- | --- | --- | --- | --- | --- | --- |
| C[C@@H](O)c1nc2cnc3[nH]ccc3c2n1[C@H]1CC[C@H](CC#N)CC1 [Example 644 of WO2011086053] | 10.5 | 0.34 | 2470 (≈ 7.64 mM) | 136 (≈ 0.421 mM) | 9.9 (≈ 0.0306 mM) | weak CYP3A4 inhibition | 10800 | > 25000 | > 25000 |  |  |  |  |
| C[C@@H](O)c1nc2cnc3[nH]ccc3c2n1[C@H]1CC[C@H](C#N)CC1 [Example 641 of WO2011086053] | 178 |  | 90000 (≈ 291 mM) | 2260 (≈ 7.31 mM) | 2280 (≈ 7.37 mM) | weak CYP3A4 inhibition | 10900 | > 25000 | > 25000 | 32 | 6.81 | 33 | 109 |
| CNc1cc2c(cn1)nc([C@@H](C)O)n2[C@H]1CC[C@H](CC#N)CC1 [Example 3, trans-2-[4-[2-[(1R)-1-Hydroxyethyl]-6-(methylamino)imidazo[4,5-c]pyridin-1-yl]cyclohexyl]acetonitrile] | 94.5 | 3.48 | > 346000 | 12300 (≈ 39.2 mM) | 11100 (≈ 35.4 mM) |  | > 50000 | > 50000 | > 50000 | 68 |  | 51 | 489 |
